From patent US20160221965A1, “DISUBSTITUTED TRIFLUOROMETHYL PYRIMIDINONES AND THEIR USE” (BAYER PHARMA AKTIENGESELLSCHAFT, priority 2013, published 2016)

Tests used:
human CCR2 = target: T1, human CCR2 (Homo sapiens, UniProt P41597); assay: Functional Ca2+ release test (B-1); assay type: cell-based; settings: Chem-1 cell line transfected with human CCR2, inhibition of MCP-1 effect, MCP-1 at EC50 (about 5 nM), Fluo-4
T1 construct: host or cells: Chem-1 cell line
T1 sequence (P41597 1-360 isoform P41597-2): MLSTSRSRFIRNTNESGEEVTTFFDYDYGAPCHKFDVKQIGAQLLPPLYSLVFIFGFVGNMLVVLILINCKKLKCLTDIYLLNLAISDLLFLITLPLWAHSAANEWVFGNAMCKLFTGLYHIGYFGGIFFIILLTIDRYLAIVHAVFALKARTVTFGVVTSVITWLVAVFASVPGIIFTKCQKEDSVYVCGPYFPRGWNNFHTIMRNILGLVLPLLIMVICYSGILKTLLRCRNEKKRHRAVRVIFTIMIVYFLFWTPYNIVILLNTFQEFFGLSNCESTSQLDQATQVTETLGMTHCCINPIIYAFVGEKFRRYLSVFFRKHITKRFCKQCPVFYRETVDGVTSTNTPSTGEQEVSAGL
Protocol: The antagonistic action of test substances on CCR2 was determined in a functional Ca^2+ release test. Binding of CCL2/MCP-1 to CCR2 leads to a change in the conformation of the receptor resulting in Gi/Gq protein activation and intracellular signal cascade. This involves, inter alia, an intracellular Ca^2+ release. The test cell used was a Chem-1 cell line transfected with human CCR2 (ChemiSCREEN™ CCR2B Calcium-Optimized FLIPR Cell Line, Merck Millipore).
(§1) The test substances were dissolved in dimethyl sulphoxide (DMSO) at a concentration of 10 mM and serially diluted with DMSO in steps of 1:3.16 for a 10-point dose/activity analysis. According to the desired test concentrations, the substances were pre-diluted in Tyrode with 2 mM CaCl2 and 0.05% BSA.
The cells, cultivated in DMEM high glucose [supplemented with 10% FCS, 1 mM pyruvate, 15 mM HEPES, 500 μg/ml geniticin and non-essential amino acids (NEAA)], were sown at 5000 cells/25 μl in 384 well, μCLEAR/black cell culture plates from Greiner (#781092) and incubated at 37° C. for 24 h. The sowing medium consisted of DMEM high glucose [supplemented with 5% FCS, 1 mM pyruvate, 15 mM HEPES, 50 U/ml penicillin, 50 μg/ml streptomycin and non-essential amino acids (NEAA)]. The medium was then removed and the cells were charged for 60 min at 37° C. with Fluo-4 dye [25 μl Tyrode with 3 μM Fluo-4 AM (1 mM DMSO stock solution), 0.4 mg/ml Brilliant Black, 2.5 mM probenicid, 0.03% Pluronic F-127]. The cells were pre-incubated for 10 min with 10 μl of the test substances diluted in buffer, and 20 μl of agonist solution (MCP-1 in Tyrode with 0.05% BSA) were then added. MCP-1 was employed at the concentration which corresponds to the EC50 which had been determined in a preliminary test (usually about 5 nM). Ca^2+ release was monitored over a period of 120 s in 1 s increments in a proprietary fluorescence imaging reader. The molar concentration of the test substance which caused 50% inhibition of the MCP-1 effect (IC50) was determined using a 4-parameter logistic function (Hill function).

murine CCR2 = target: T2, murine CCR2 (Mus musculus, UniProt P51683); assay: Functional β-arrestin recruiting test with human MCP-1 (B-2a); assay type: cell-based; settings: U2OS β-arrestin cell line transfected with murine CCR2; agonist human MCP-1 at EC50 (about 3 nM)
T2 construct: host or cells: U2OS β-arrestin cell line
Protocol: The antagonistic action of test substances on CCR2 was determined in a β-arrestin test. The PathHunter β-arrestin GPCR test system (DiscoveRx Corporation, Ltd.) is a cell-based functional method for detecting binding of β-arrestin to an activated receptor. The molecular basis is a β-galactosidase complementation measured by the enzymatic conversion of a chemiluminescent substrate. The test cell used was a U2OS β-arrestin cell line transfected with murine CCR2 (93-0543C3, DiscoveRx Corporation, Ltd.).
as §1
The cells, cultivated in MEM Eagle (supplemented with 10% FCS, 50 U/ml of penicillin, 50 μg/ml of streptomycin, 250 μg/ml of hygromycin and 500 μg/ml of geniticin), were sown at 2000 cells/25 μl in 384 well, μCLEAR/black cell culture plates from Greiner (#781092) and incubated at 37° C. for 24 h. The sowing medium consisted of Opti-MEM (supplemented with 1% FCS, 50 U/ml of penicillin and 50 μg/ml of streptomycin). The cells were pre-incubated for 10 min with 10 μl of the test substances diluted in buffer, and 10 μl of agonist solution [human MCP-1 (PeproTech, #300-04) in Tyrode with 0.05% BSA] were then added. The human MCP-1 was employed at the concentration which corresponds to the EC50 which had been determined in a preliminary test (usually about 3 nM). After 90 min of incubation at 37° C., the solution was removed, and recruitment of β-arrestin to CCR2 was detected with the aid of the PathHunter detection reagent (93-001, DiscoveRx Corporation, Ltd.) according to the instructions of the manufacturer. Luminescence was measured after an incubation time of 60 min using a proprietary luminescence imaging measuring instrument. The molar concentration of the test substance which caused 50% inhibition of the MCP-1 effect (IC50) was determined using a 4-parameter logistic function (Hill function).

T2 sequence (P51683 whole entry): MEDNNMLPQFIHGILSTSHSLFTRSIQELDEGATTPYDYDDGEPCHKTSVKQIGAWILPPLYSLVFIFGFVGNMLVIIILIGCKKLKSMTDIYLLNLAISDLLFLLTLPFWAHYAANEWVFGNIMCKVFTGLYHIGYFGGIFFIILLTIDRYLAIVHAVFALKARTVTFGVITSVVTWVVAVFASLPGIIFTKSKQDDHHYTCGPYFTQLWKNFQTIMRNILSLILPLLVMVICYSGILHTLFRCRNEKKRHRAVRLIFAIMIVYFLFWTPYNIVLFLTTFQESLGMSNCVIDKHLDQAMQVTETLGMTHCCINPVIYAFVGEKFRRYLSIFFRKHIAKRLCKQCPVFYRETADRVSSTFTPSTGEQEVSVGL

Structure (SMILES) | IC50 (human CCR2) [µM] | IC50 (murine CCR2) [µM]
Nc1nc(C(F)(F)F)c(Oc2cccc(Cl)c2)c(=O)[nH]1 [Example 9, 2-amino-5-(3-chlorophenoxy)-6-(trifluoromethyl)pyrimidin-4(3H)-one] | 0.038 | 0.45
Nc1nc(C(F)(F)F)c(Oc2ccc(F)c(F)c2)c(=O)[nH]1 [Example 10, 2-amino-5-(3,4-difluorophenoxy)-6-(trifluoromethyl)pyrimidin-4(3H)-one] | 0.043 | 1.3
Cc1ccc(Cc2c(C(F)(F)F)nc(N)[nH]c2=O)cc1Cl [Example 11, 2-amino-5-(3-chloro-4-methylbenzyl)-6-(trifluoromethyl)pyrimidin-4(3H)-one] | 0.042 | 0.56
Nc1nc(C(F)(F)F)c(Oc2cncc(Cl)c2)c(=O)[nH]1 [Example 12, 2-amino-5-[(5-chloropyridin-3-yl)oxy]-6-(trifluoromethyl)pyrimidin-4(3H)-one] | 0.054 | 1
Cc1nc(C(F)(F)F)c(Cc2ccc(Cl)c(Cl)c2)c(=O)[nH]1 [Example 18, 5-(3,4-Dichlorobenzyl)-2-methyl-6-(trifluoromethyl)pyrimidin-4(3H)-one] | 0.033 | 0.37
CCc1nc(C(F)(F)F)c(Cc2ccc(C(F)(F)F)c(Cl)c2)c(=O)[nH]1 [Example 19, 5-[3-Chloro-4-(trifluoromethyl)benzyl]-2-ethyl-6-(trifluoromethyl)pyrimidin-4(3H)-one] | 0.063 | 0.98
CCc1nc(C(F)(F)F)c(Cc2cccc(C(F)(F)F)c2)c(=O)[nH]1 [Example 20, 2-ethyl-6-(trifluoromethyl)-5-[3-(trifluoromethyl)benzyl]pyrimidin-4(3H)-one] | 0.3 | 1.2
O=c1[nH]c(C2CC2)nc(C(F)(F)F)c1Cc1cccc(Cl)c1 [Example 21, 5-(3-chlorobenzyl)-2-cyclopropyl-6-(trifluoromethyl)pyrimidin-4(3H)-one] | 0.23 | 0.59
CCCCc1nc(C(F)(F)F)c(Cc2ccc(Cl)c(Cl)c2)c(=O)[nH]1 [Example 22, 2-butyl-5-(3,4-dichlorobenzyl)-6-(trifluoromethyl)pyrimidin-4(3H)-one] | 0.11 | 0.74
O=c1[nH]c(C2CC2)nc(C(F)(F)F)c1Cc1ccc(Cl)c(F)c1 [Example 23, 5-(4-chloro-3-fluorobenzyl)-2-cyclopropyl-6-(trifluoromethyl)pyrimidin-4(3H)-one] | 0.28 | 1.2
O=c1[nH]c(C2CC2)nc(C(F)(F)F)c1Cc1ccc(C(F)(F)F)c(Cl)c1 [Example 24, 5-[3-chloro-4-(trifluoromethyl)benzyl]-2-cyclopropyl-6-(trifluoromethyl)pyrimidin-4(3H)-one] | 0.27 | 1.9
O=c1[nH]c(C2CC2)nc(C(F)(F)F)c1Oc1ccc(Cl)c(Cl)c1 [Example 25, 2-cyclopropyl-5-(3,4-dichlorophenoxy)-6-(trifluoromethyl)pyrimidin-4(3H)-one] | 0.015 | 0.17
CCc1nc(C(F)(F)F)c(Cc2ccc(F)c(Cl)c2)c(=O)[nH]1 [Example 28, 5-(3-chloro-4-fluorobenzyl)-2-ethyl-6-(trifluoromethyl)pyrimidin-4(3H)-one] | 0.044 | 0.29

Continued, values first:

IC50 (human CCR2) [µM] | IC50 (murine CCR2) [µM] | Structure (SMILES)
0.0065 | 0.22 | Nc1nc(C(F)(F)F)c(Oc2ccc(F)c(Cl)c2)c(=O)[nH]1 [Example 4, 2-amino-5-(3-chloro-4-fluorophenoxy)-6-(trifluoromethyl)pyrimidin-4(3H)-one]
0.0087 | 0.21 | Nc1nc(C(F)(F)F)c(Oc2ccc(Cl)c(F)c2)c(=O)[nH]1 [Example 5, 2-amino-5-(4-chloro-3-fluorophenoxy)-6-(trifluoromethyl)pyrimidin-4(3H)-one]
0.0054 | 0.15 | Nc1nc(C(F)(F)F)c(Oc2ccc(F)c(C(F)(F)F)c2)c(=O)[nH]1 [Example 6, 2-amino-5-[4-fluoro-3-(trifluoromethyl)phenoxy]-6-(trifluoromethyl)pyrimidin-4(3H)-one]
0.011 | 0.3 | Nc1nc(C(F)(F)F)c(Cc2ccc(F)c(Cl)c2)c(=O)[nH]1 [Example 7, 2-amino-5-(3-chloro-4-fluorobenzyl)-6-(trifluoromethyl)pyrimidin-4(3H)-one]
0.033 | 0.16 | Nc1nc(C(F)(F)F)c(Cc2ccc(Cl)c(C(F)(F)F)c2)c(=O)[nH]1 [Example 8, 2-amino-5-[4-chloro-3-(trifluoromethyl)benzyl]-6-(trifluoromethyl)pyrimidin-4(3H)-one]
0.069 | 0.33 | Nc1nc(C(F)(F)F)c(Cc2ccc(Cl)c(F)c2)c(=O)[nH]1 [Example 13, 2-amino-5-(4-chloro-3-fluorobenzyl)-6-(trifluoromethyl)pyrimidin-4(3H)-one]
0.071 | 0.81 | Nc1nc(C(F)(F)F)c(Cc2ccc(C(F)(F)F)c(Cl)c2)c(=O)[nH]1 [Example 14, 2-amino-5-[3-chloro-4-(trifluoromethyl)benzyl]-6-(trifluoromethyl)pyrimidin-4(3H)-one]
0.0023 | 0.13 | Nc1nc(C(F)(F)F)c(Sc2ccc(Cl)c(Cl)c2)c(=O)[nH]1 [Example 15, 2-Amino-5-[(3,4-dichlorophenyl)sulphanyl]-6-(trifluoromethyl)pyrimidin-4(3H)-one]
0.031 | 0.64 | Nc1nc(C(F)(F)F)c(Sc2ccc(Cl)cc2)c(=O)[nH]1 [Example 16, 2-amino-5-[(4-chlorophenyl)sulphanyl]-6-(trifluoromethyl)pyrimidin-4(3H)-one]
0.0041 | 0.16 | Nc1nc(C(F)(F)F)c(Sc2ccc(Cl)c(C(F)(F)F)c2)c(=O)[nH]1 [Example 17, 2-amino-5-{[4-chloro-3-(trifluoromethyl)phenyl]sulphanyl}-6-(trifluoromethyl)pyrimidin-4(3H)-one]
0.031 | 0.24 | CCc1nc(C(F)(F)F)c(Cc2ccc(Cl)c(C(F)(F)F)c2)c(=O)[nH]1 [Example 26, 5-[4-chloro-3-(trifluoromethyl)benzyl]-2-ethyl-6-(trifluoromethyl)pyrimidin-4(3H)-one]
0.063 | 0.36 | O=c1[nH]c(C2CC2)nc(C(F)(F)F)c1Cc1ccc(Cl)c(C(F)(F)F)c1 [Example 27, 5-[4-chloro-3-(trifluoromethyl)benzyl]-2-cyclopropyl-6-(trifluoromethyl)pyrimidin-4(3H)-one]
